Bridge positions count the residues as written; N and C are the ends. Square brackets hold non-standard residues; d marks the D form. Peptide text beside a SMILES is read from it. * marks the point of attachment. Heptanoyl(6-Me) = CC(C)CCCCC(=O)*; Dab = NCC[C@H](N)C(=O)O
Tested on: Klebsiella pneumoniae
Assay: MALDI-TOF detection of released characteristic proteins, 10 min at 50° C., filtration (examples V, VI)
Type: cell-based
Conditions: colistin 2.5 mg/ml, 10 min 50° C.
Protocol: The tests were carried out using the following steps: • preparing a suspension of microorganism at 2 McF in water (suspension medium, bioMérieux reference 70700), • preparing a solution of colistin sulfate (Sigma reference C4461) at a concentration of 2× in pure water (taking into account the colistin titer indicated by the manufacturer).
The proteins characteristic of the species Klebsiella pneumoniae are the DNA binding protein H-NS, the ribosomal proteins L29, L31, L34 and US9, the cold shock protein containing a CsbD domain (CsbD domain-containing protein), and the uncharacterized proteins with m/z 6290 and 8308. These proteins are characterized respectively by the peaks at 7705 (DNA binding protein H-NS), 7274 (L29), 7743 (L31), 5381 (L34), 7384 (US9), 8309 (CsbD), more or less 1000 parts per million (ppm). For their part, the hypothetical proteins are characterized by peaks at 6290 and […], more or less 1000 parts per million (ppm).
In the context of this example, the tests were carried out with the method of the present invention to determine the sensitivity or resistance of several bacteria of several strains such as in example V and comprising the following steps: • measuring the intensity of each peak observed, • finding a ratio between the sum of the intensities of the protein peaks of the microorganism and at least 1 peak of colistin. • determining the status, resistant or sensitive to colistin, as a function of the sum of the ratios obtained and of a threshold fixed for each species. • a resistant microorganism will have a low ratio and a sensitive microorganism will have a high ratio.
The K. pneumoniae strains KP S10-1, KP S10-2, KP S15-1, KP S15-2, KP R9-1, KP R9-2, KP R16-1 and KP R16-2 are also studied and the proteins characteristic of the species K. pneumoniae are analyzed. These characteristic proteins are the DNA binding protein H-NS, the ribosomal proteins L29, L31, L34 and US9, the cold shock protein containing a CsbD domain (CsbD domain-containing protein), and the uncharacterized proteins with m/z 6290 and 8308.

CC(C)CCCCC(=O)N[C@@H](CCN)C(=O)N[C@H](C(=O)N[C@@H](CCN)C(=O)N[C@H]1CCNC(=O)[C@H]([C@@H](C)O)NC(=O)[C@H](CCN)NC(=O)[C@H](CCN)NC(=O)[C@H](CC(C)C)NC(=O)[C@@H](CC(C)C)NC(=O)[C@H](CCN)NC1=O)[C@@H](C)O [colistin] ({Heptanoyl(6-Me)}-[Dab]T[Dab][Dab][Dab][dL]L[Dab][Dab]T; lactam 4-C)
Aire sous la courbe des pics observés, 6290 (strain KP R9-1): 0.00 unité arbitraire
Aire sous la courbe des pics observés, 8308 (strain KP R9-1): 0 unité arbitraire
Aire sous la courbe des pics observés, CsbD domain-containing protein (strain KP R9-1): 0 unité arbitraire
Aire sous la courbe des pics observés, DNA binding protein H-NS (strain KP R9-1): 0.00 unité arbitraire
Aire sous la courbe des pics observés, Protéine ribosomique 50S L29 (strain KP R9-1): 0 unité arbitraire
Aire sous la courbe des pics observés, Protéine ribosomique 50S L31 (strain KP R9-1): 0 unité arbitraire
Aire sous la courbe des pics observés, Protéine ribosomique 50S L34 (strain KP R9-1): 0 unité arbitraire
Aire sous la courbe des pics observés, US9 (strain KP R9-1): 0 unité arbitraire
Ratio par protéine 6290/Colistine (strain KP R9-1): 0.00
Ratio par protéine 8308/Colistine (strain KP R9-1): 0.00
Ratio par protéine CsbD/Colistine (strain KP R9-1): 0.00
Ratio par protéine DNA BP H-NS/Colistine (strain KP R9-1): 0.00
Ratio par protéine L29/Colistine (strain KP R9-1): 0.00
Ratio par protéine L31/Colistine (strain KP R9-1): 0.00
Ratio par protéine L34/Colistine (strain KP R9-1): 0.00
Ratio par protéine US9/Colistine (strain KP R9-1): 0.00
Somme des ratios (strain KP R9-1): 0.00
Aire sous la courbe des pics observés, 6290 (strain KP R9-2): 0.00 unité arbitraire
Aire sous la courbe des pics observés, 8308 (strain KP R9-2): 0 unité arbitraire
Aire sous la courbe des pics observés, CsbD domain-containing protein (strain KP R9-2): 0 unité arbitraire
Aire sous la courbe des pics observés, DNA binding protein H-NS (strain KP R9-2): 89 unité arbitraire
Aire sous la courbe des pics observés, Protéine ribosomique 50S L29 (strain KP R9-2): 0 unité arbitraire
Aire sous la courbe des pics observés, Protéine ribosomique 50S L31 (strain KP R9-2): 0 unité arbitraire
Aire sous la courbe des pics observés, Protéine ribosomique 50S L34 (strain KP R9-2): 0 unité arbitraire
Aire sous la courbe des pics observés, US9 (strain KP R9-2): 0 unité arbitraire
Ratio par protéine 6290/Colistine (strain KP R9-2): 0.00
Ratio par protéine 8308/Colistine (strain KP R9-2): 0.00
Ratio par protéine CsbD/Colistine (strain KP R9-2): 0.00
Ratio par protéine DNA BP H-NS/Colistine (strain KP R9-2): 0.11
Ratio par protéine L29/Colistine (strain KP R9-2): 0.00
Ratio par protéine L31/Colistine (strain KP R9-2): 0.00
Ratio par protéine L34/Colistine (strain KP R9-2): 0.00
Ratio par protéine US9/Colistine (strain KP R9-2): 0.00
Somme des ratios (strain KP R9-2): 0.11
Aire sous la courbe des pics observés, 6290 (strain KP R16-1): 0.00 unité arbitraire
Aire sous la courbe des pics observés, 8308 (strain KP R16-1): 0 unité arbitraire
Aire sous la courbe des pics observés, CsbD domain-containing protein (strain KP R16-1): 0 unité arbitraire
Aire sous la courbe des pics observés, DNA binding protein H-NS (strain KP R16-1): 0.00 unité arbitraire
Aire sous la courbe des pics observés, Protéine ribosomique 50S L29 (strain KP R16-1): 0 unité arbitraire
Aire sous la courbe des pics observés, Protéine ribosomique 50S L31 (strain KP R16-1): 0 unité arbitraire
Aire sous la courbe des pics observés, Protéine ribosomique 50S L34 (strain KP R16-1): 0 unité arbitraire
Aire sous la courbe des pics observés, US9 (strain KP R16-1): 0 unité arbitraire
Ratio par protéine 6290/Colistine (strain KP R16-1): 0.00
Ratio par protéine 8308/Colistine (strain KP R16-1): 0.00
Ratio par protéine CsbD/Colistine (strain KP R16-1): 0.00
Ratio par protéine DNA BP H-NS/Colistine (strain KP R16-1): 0.00
Ratio par protéine L29/Colistine (strain KP R16-1): 0.00
Ratio par protéine L31/Colistine (strain KP R16-1): 0.00
Ratio par protéine L34/Colistine (strain KP R16-1): 0.00
Ratio par protéine US9/Colistine (strain KP R16-1): 0.00
Somme des ratios (strain KP R16-1): 0.00
Aire sous la courbe des pics observés, 6290 (strain KP R16-2): 0.00 unité arbitraire
Aire sous la courbe des pics observés, 8308 (strain KP R16-2): 0 unité arbitraire
Aire sous la courbe des pics observés, CsbD domain-containing protein (strain KP R16-2): 0 unité arbitraire
Aire sous la courbe des pics observés, DNA binding protein H-NS (strain KP R16-2): 0.00 unité arbitraire
Aire sous la courbe des pics observés, Protéine ribosomique 50S L29 (strain KP R16-2): 0 unité arbitraire
Aire sous la courbe des pics observés, Protéine ribosomique 50S L31 (strain KP R16-2): 0 unité arbitraire
Aire sous la courbe des pics observés, Protéine ribosomique 50S L34 (strain KP R16-2): 0 unité arbitraire
Aire sous la courbe des pics observés, US9 (strain KP R16-2): 0 unité arbitraire
Ratio par protéine 6290/Colistine (strain KP R16-2): 0.00
Ratio par protéine 8308/Colistine (strain KP R16-2): 0.00
Ratio par protéine CsbD/Colistine (strain KP R16-2): 0.00
Ratio par protéine DNA BP H-NS/Colistine (strain KP R16-2): 0.00
Ratio par protéine L29/Colistine (strain KP R16-2): 0.00
Ratio par protéine L31/Colistine (strain KP R16-2): 0.00
Ratio par protéine L34/Colistine (strain KP R16-2): 0.00
Ratio par protéine US9/Colistine (strain KP R16-2): 0.00
Somme des ratios (strain KP R16-2): 0.00
Aire sous la courbe des pics observés, 6290 (strain KP S10-1): 837 unité arbitraire
Aire sous la courbe des pics observés, 8308 (strain KP S10-1): 209 unité arbitraire
Aire sous la courbe des pics observés, CsbD domain-containing protein (strain KP S10-1): 0 unité arbitraire
Aire sous la courbe des pics observés, DNA binding protein H-NS (strain KP S10-1): 374 unité arbitraire

From patent publication US12460243B2, “Mass spectrometry determination of the sensitivity or resistance of bacteria to an antibiotic” (priority 2019, dated 2025)
